Marks after values point to notes of the source that are not given here.
Key:
Format in all cases: cell-based, human
[1] = system: CRABPII (cellular retinoic acid binding protein II); experiment: CRABPII gene expression by TaqMan real time PCR in dermal fibroblasts
Experimental: (§1) Primary human dermal fibroblasts (P3) are plated at 31,579 cells per cm^2 into 6-well 2 kPa hydrogel collagen coated plates in 2 ml 2% fetal bovine serum in Dulbecco's Modified Eagles Media (DMEM) and maintained 24 hours in a cell culture incubator at 5% carbon dioxide. The cells were washed twice with Dulbecco's Phosphate Buffered Saline DPBS) then 1 ml of DMEM supplemented with 0.6% fatty acid free bovine serum albumin (FAF-BSA). The cells were maintained for 24 hours in a cell culture incubator at 5% carbon dioxide. Four hundred ul of media was removed from each well of the plates. Two hundred ul of the YAP active treatments diluted at 10X the desired final concentration plus 1% DMSO were diluted in DMEM supplemented with 0.6% fatty acid free bovine serum albumin. The control wells were treated with two hundred ul of 1% DMSO were diluted in DMEM supplemented with 0.6% fatty acid free bovine serum albumin. Two hundred ul of water-soluble YAP actives diluted at 10X the desired final concentration diluted in DPBS+0.1% FAF-BSA. The controls wells were treated with 200 ul DPBS+0.1% FAF-BSA. The plates were incubated overnight at 37° C. at 5% CO2. In the AM the plates were dosed with the 220 ul of the water-soluble YAP actives in DPBS +0.1% FAF-BSA or the control well with 220 ul DPBS +0.1% FAF-BSA. After 6 hours the media was aspirate from the wells, the cells washed 2X with DPBS and the plate frozen at -80 °C until the RNA was isolated.
700 ul of RLT buffer plus beta-mercaptoethanol was added to each well immediately after removing the plate from the freezer. The plate was placed on an orbital shaker at 500 revolution per minute up for 15 minutes while the buffer thawed and extracted the cells. […] The RNA samples were quantitated on a NanoDrop 800 and quantity access on an Agilent Bio-analyzer. […] The cDNA samples were evaluated for the expression level of select markers using comparative Taqman analysis using 2 ul of the cDNA per reaction. […]
An independent experiment was conducted using cell culture and RNA isolation methods described in Example 2 to further elucidate the retinyl propionate+ORG synergy (as observed in Table 4) by analyzing a well-described marker of a retinoid activity CRABPII (cellular retinoic acid binding protein II). […] Then, 10 ng cDNA samples per reaction were evaluated for the expression level of CRABPII using primers and comparative TaqMan™ Gene Expression Assay and TaqMan™ Fast Advanced Master (FAM) Mix (purchased from Applied Biosystems™) and run in a ViiA™ 7 Real Time PCR System (from Applied Biosystems™). Percent increases in CRABPII expression was calculated by converting the log2fold-change to a percentage increase using the following formula: Percent increase=100*(2^log2FC)-100.

procollagen-I = experiment: Procollagen type 1 C-peptide (PIP) EIA on media of dermal fibroblasts on soft hydrogel; settings: for Procollagen: day 6; for Effect on procollagen-I synthesis in human dermal fibroblasts, in words: substrates mimicking the biomechanical properties of skin
Experimental: Since YAP activity is highly dependent on substrate rigidity it was necessary to develop and perform assays on substrates with tunable mechanical properties.
Primary human dermal fibroblasts (P3) are plated at 31,579 cells per cm2 into 24-well […] collagen coated hydrogel plates in 1 ml 2% fetal bovine serum in Dulbecco's Modified Eagles Media (DMEM) and maintained 24 hours in a cell culture incubator at 5% carbon dioxide. The cells were washed twice with Dulbecco's Phosphate Buffered Saline then 1 ml of DM EM supplemented with 0.6% fatty acid free bovine serum albumin. The cells were maintained for 24 hours in a cell culture incubator at 5% carbon dioxide.
Two hundred microliter of media was removed from each well. To each well were added 100 ul of 500 ug per ml ascorbic acid in DMEM supplemented with 0.6% fatty acid free bovine serum albumin. Test materials were diluted to 10X final concentration in DMEM supplemented with 0.6% fatty acid free bovine serum albumin or PBS supplemented with 0.1% fatty acid free bovine serum albumin and 100 ul dosed to duplicate wells. The cells/plates were incubated for 3 days at 37° C., 5% CO2 in a cell culture incubator. On day 3 the media was removed from the wells and 900u1 DMEM supplemented with 0.6% fatty acid free bovine serum albumin plus 50 ug/ml ascorbic acid. The treatments were added as described above. On day 6 after the start of treatment remove 100 ul of the media from each well for the determination of the level of procollagen.
The amount of procollagen in the media samples was determined using the Takara Bio Procollagen type 1 C-peptide (PIP) detection EIA assay. The assay was run following the manufacturer's instructions as following—100 ul of the reconstituted antibody-POD conjugate to the wells of the assay for the number required for the media samples and the standard curve. The procollagen standard solution was 2-fold serial diluted using sample diluent to generate a standard curve of 640, 320, 160, 80, 40, 20, 10 and 0 ng/ml procollagen. The media samples were diluted 1/20 with sample diluent. Twenty ul of the standard curve dilutions were added to the wells of the assay plate in duplicate. The 20 ul media dilutions in sample diluent were added to the wells of the assay plate in singlet. The plate was incubated for 3 hours at 37° C., washed 4 times with phosphate buffered saline wash buffer and tapped to remove all residual wash buffer. One hundred ul of substrate solution (TMBZ) was added to each well and incubate 15 minutes. One hundred ul of stop solution was added to each well, the plate shaken to mix and the optical density at 450 nm read in a plate reader. The amount of procollagen in the test samples was calculated from the standard curve values and corrected for the dilution factor and the volume in the well to generate the ng of procollagen in the samples. The amount of procollagen induced by the test materials was compared to the basal media.

YAP/TAZ = experiment: Nuclear translocation assay to identify activators of YAP/TAZ bioactivity, fibroblasts on fibronectin micro-islands; settings: for Mechano-transduction Activation (% Increase): 20 uM, 2 hours, YAP/TAZ nucleus/cytoplasm ratio normalised to control and LPA; for Induction of mechano-transduction signaling (translocation of cytoplasmic YAP/TAZ into the nucleus), in words: over the vehicle DMSO
Experimental: Cellular localization of YAP can be regulated by the rigidity of the substrate or ECM that cells are attached to, or the degree to which cells can spread on a substrate. Thus in vitro models can be useful to engineer low states of YAP activity.
Briefly, primary human dermal fibroblasts were seeded on microprinted substrate islands (<1000 μm^2) of fibronectin and incubated overnight at 37° C., 5% CO2 in a cell culture incubator. Next, fibroblasts were treated with materials described in Table 1. After the treatment period of 2 hours, cells were fixed and stained: nuclei were stained with Hoechst dye and YAP/TAZ was stained with a mouse antibody to YAP/TAZ (Santa Cruz Biotechnology), followed by the secondary fluorescently tagged antibody (donkey anti-mouse AlexaFluor 488). Microscopic images were acquired and YAP/TAZ fluorescent signal measured in the cytoplasm and nucleus of each cell. The fluorescence intensity measured in the nucleus is divided by the one measured in the cytoplasm to obtain the YAP/TAZ ratio readout as described below Table 1.

COL3A1 = experiment: mRNA gene expression in dermal fibroblasts on 2 kPa hydrogel (RNA-seq); settings: vs. Vehicle
Experimental: as §1
(§2) The RNA was isolated using the Qiagen RNeasy mini kit following the manufacturer's instruction with the following modifications—
(§3) 700 ul of RLT buffer plus beta-mercaptoethanol was added to each well immediately after removing the plate from the freezer. The plate was placed on an orbital shaker at 500 revolution per minute up for 15 minutes while the buffer thawed and extracted the cells. The cell lysate was transfer to Qiashedders and pass the Qiashedder to disrupt the cells. The recovery lysate was mixed with an equal volume of 70% Ethanol, 30% water. The RNA was purified on the minicolumns including the DNase step to remove DNA contamination. The RNA samples were quantitated on a NanoDrop 800 and quantity access on an Agilent Bio-analyzer. An aliquot of the RNA samples was reverse transcribed in cDNA then diluted to 5 ng/ul of input RNA. The cDNA samples were evaluated for the expression level of select markers using comparative Taqman analysis using 2 ul of the cDNA per reaction. The level of RNA expression was compared using the delta delta Cycle threshold (ddCt) method. Aliquot of the RNAs were also submitted to Lexogen (Vienna, Austria) for RNA-seq analysis.
(§4) Shown in Table 5 is the average percent increase in mRNA expression for genes involved in extracellular matrix production following ORG treatment relative to the vehicle control, along with the Benjamini-Hochberg adjusted p-values (adj.p.value) calculated by converting the average log2fold-change (calculated using DESeq2) to a percentage increase using the following formula: Percent increase=100*(2^log2FC)-100.

FBN1 = experiment: as above; settings: vs. Vehicle
Experimental: as §1, §2, §3, §4

HAS2 = experiment: as above; settings: vs. Vehicle
Experimental: as §1, §2, §3, §4

FN1 = experiment: as above; settings: vs. Vehicle
Experimental: as §1, §2, §3, §4

ELN = experiment: as above; settings: vs. Vehicle
Experimental: as §1, §2, §3, §4

COL4A1 = experiment: as above; settings: vs. Vehicle
Experimental: as §1, §2, §3, §4

COL1A1 = experiment: as above; settings: vs. Vehicle
Experimental: as §1, §2, §3, §4

COL5A1 = experiment: as above; settings: vs. Vehicle
Experimental: as §1, §2, §3, §4

[2] = Experiment 1, 50 μM, vehicle control 1933.3
[3] = Experiment 2, 50 μM, vehicle control 2240.5

| Molecule | Effect on procollagen-I synthesis in human dermal fibroblasts, in words (procollagen-I) | Mechano-transduction Activation (% Increase) (YAP/TAZ) | Induction of mechano-transduction signaling (translocation of cytoplasmic YAP/TAZ into the nucleus), in words (YAP/TAZ) | Procollagen (procollagen-I; [2]) [ng/mL] | Procollagen (procollagen-I; [3]) [ng/mL] | other results |
| --- | --- | --- | --- | --- | --- | --- |
| CCC(=O)OC/C=C(C)/C=C/C=C(C)/C=C/C1=C(C)CCCC1(C)C [retinyl propionate] | do not exhibit such a pronounced effect |  |  |  |  | Effect on CRABPII gene expression, in words [1]: robust increase in CRABPII gene expression; Percent Increase in CRABPII Gene Expression vs Vehicle ([1]; 10 μM): 138%; Procollagen (procollagen-I; Experiment 3, 10 μM, vehicle control 1301.9): 1452.0 ng/mL |
| CCCCCCCC/C=C\CCCCCCCC(=O)OC[C@@H](O)COP(=O)([O-])O.[Na+] [LPA, Lysophosphatidic acid] |  | 100 +/− 1 ** % | induces mechano-transduction signaling |  |  | Procollagen (procollagen-I; Experiment 1, 30 μM, vehicle control 1933.3): 3532.6 ng/mL; Procollagen (procollagen-I; Experiment 2, 30 μM, vehicle control 2240.5): 3381.3 ng/mL |
| oleoyl-rac-glycerol [ORG (Monomuls ®)] | promotes the synthesis of procollagen-I |  |  | 3084.2 | 3256.8 | COL3A1 mRNA expression, Percent Increase (COL3A1): 15.35%; FBN1 mRNA expression, Percent Increase (FBN1): 12.36%; HAS2 mRNA expression, Percent Increase (HAS2): 164.75%; FN1 mRNA expression, Percent Increase (FN1): 15.49%; ELN mRNA expression, Percent Increase (ELN): 18.49%; COL4A1 mRNA expression, Percent Increase (COL4A1): 20.36%; COL1A1 mRNA expression, Percent Increase (COL1A1): 21.16%; COL5A1 mRNA expression, Percent Increase (COL5A1): 10.73%; Effect on CRABPII gene expression, in words [1]: more modest increase; Percent Increase in CRABPII Gene Expression vs Vehicle ([1]; 50 μM): 54%; Procollagen (procollagen-I; Experiment 3, 50 μM, vehicle control 1301.9): 2275.4 ng/mL |
| CCCCCCCCCCCCCCC(=O)OCC(O)CO (racemic) [1-Pentadecanoyl-rac-glycerol] |  | 25 +/− 26% | do not induce mechano-transduction |  |  |  |
| CCCCCCCCCCCCCCCCCC(=O)OCC(O)CO (racemic) [1-Stearoyl-rac-glycerol] |  | 6 +/− 7% | do not induce mechano-transduction |  |  |  |
| C=CCc1ccc(O)c(-c2cc(CC=C)ccc2O)c1 [Magnolol] | do not exhibit such a pronounced effect |  |  |  | 2512.8 |  |
| CCCCCCCC/C=C\CCCCCCCC(=O)NCC(=O)O [Oleoyl Glycinate] | do not exhibit such a pronounced effect |  |  | 2474.9 |  |  |
| CCCCCCCC/C=C\CCCCCCCC(=O)OCC(O)CO (racemic) [1-oleoyl-rac-glycerol] |  | 17 +/− 10 ** % | significantly induces mechano-transduction signaling |  |  |  |
| CC(C)c1cc2c(cc1O)[C@@]1(C)CC[C@H](O)C(C)(C)[C@@H]1CC2 [Hinokiol] | do not exhibit such a pronounced effect |  |  | 1946.1 | 1843.5 |  |

From US20240173231A1, “COSMETIC SKIN CARE COMPOSITION” (Conopco, Inc., d/b/a UNILEVER, priority 2021, published 2024)
